Measured values from patent US20240287138A1, “CYCLIC PEPTIDES FOR INHIBITING TNF RECEPTOR 1 ACTIVITY” (Merck Sharp & Dohme LLC, priority 2023, published 2024).
Like-named read-outs stand apart in the source and are kept apart here. Numbered stars: 1 amine (or outer) side, 2 acyl side, 3 side chain; on linkers, the order of the positions; unused ones are H or OH. Bridge positions count the residues as written; N and C are the ends. Square brackets hold non-standard residues; d marks the D form. Peptide text beside a SMILES is read from it. Trp(βS-Me,7-OMe) = COc1cccc2c([C@H](C)[C@H](N)C(=O)O)c[nH]c12; Ala(indazol-1-yl) = N[C@@H](Cn1ncc2ccccc21)C(=O)O; Trp(7-CN) = N#Cc1cccc2c(C[C@H](N)C(=O)O)c[nH]c12; Trp(7-Cl) = N[C@@H](Cc1c[nH]c2c(Cl)cccc12)C(=O)O; Phe(3-CONH2) = NC(=O)c1cccc(C[C@H](N)C(=O)O)c1; Phe(4-CONH2) = NC(=O)c1ccc(C[C@H](N)C(=O)O)cc1; Phe(4-COOH) = N[C@@H](Cc1ccc(C(=O)O)cc1)C(=O)O; Trp(7-aza) = N[C@@H](Cc1c[nH]c2ncccc12)C(=O)O; dPro(trans-4-F) = O=C(O)[C@H]1C[C@H](F)CN1; Pip(5R-OH) = O=C(O)[C@@H]1CC[C@@H](O)CN1; X1 = O=C([C@@H]1CC[C@H](N[*:1])C1)[*:2]; NMeT = CN[C@H](C(=O)O)[C@@H](C)O; 4Pal = N[C@@H](Cc1ccncc1)C(=O)O; NMeE = CN[C@@H](CCC(=O)O)C(=O)O; dHyp = O=C(O)[C@H]1C[C@H](O)CN1; αMeS = C[C@](N)(CO)C(=O)O; Nle = CCCC[C@H](N)C(=O)O; Sar = CNCC(=O)O

Key:
[1] = biological target: T1, human TNFR1 extracellular domain (ECD) protein (Homo sapiens, UniProt P19438); test: SPR binding affinity to captured human TNFR1 ECD
T1 construct: HRV 3C protease cleavage site (C); 6His (C, cleaved yes); made in house; host or cells: Sf21 insect cells (baculovirus), secreted
T1 sequence (P19438 30-211): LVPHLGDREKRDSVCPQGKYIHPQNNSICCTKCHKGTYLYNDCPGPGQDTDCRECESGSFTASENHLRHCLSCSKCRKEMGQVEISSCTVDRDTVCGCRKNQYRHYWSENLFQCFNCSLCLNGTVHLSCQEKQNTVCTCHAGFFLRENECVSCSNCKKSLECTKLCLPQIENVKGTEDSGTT
How it was run: (§1)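 SPR kinetics: peptides over captured avi-biotinylated receptor ECDs, TNFR1 for affinity, TNFR2 run in parallel for off-target binding. Running buffer HEPES pH 7.4 with 150 mM NaCl, 3 mM EDTA, 0.05% P20, 2% DMSO; surface regenerated between analytes. Affinity derived from kon/koff.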

human TNFR2 ECD protein = biological target: T2, human TNFR2 ECD protein (Homo sapiens, UniProt P20333); test: SPR off-target binding (selectivity) to human TNFR2 ECD
T2 construct: HRV 3C protease cleavage site (C); 6His (C, cleaved yes); made in house; host or cells: Sf21 insect cells (baculovirus), secreted
T2 sequence (P20333 23-257): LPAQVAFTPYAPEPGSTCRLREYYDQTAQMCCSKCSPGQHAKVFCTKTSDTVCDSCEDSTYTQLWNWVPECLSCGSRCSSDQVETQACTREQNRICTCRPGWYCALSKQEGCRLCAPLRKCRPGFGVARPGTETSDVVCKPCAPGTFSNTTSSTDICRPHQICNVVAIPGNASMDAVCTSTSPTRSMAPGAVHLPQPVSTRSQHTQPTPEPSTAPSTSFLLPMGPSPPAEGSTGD
How it was run: as §1

[2] = biological target: T3, TNFα-induced NF-κB signal transduction pathway (TNFR1 signaling) in THP-1 cells (Homo sapiens, UniProt P19438); test: THP-1 Lucia NF-κB reporter cell assay, inhibition of TNFα-induced NF-κB signaling; assay type: cell-based; conditions: THP-1 NF-κB Lucia reporter cells, 10 ng/mL TNFα, 16-18 h, secreted luciferase; read-out: THP-1 IC50
T3 sequence (P19438 30-455): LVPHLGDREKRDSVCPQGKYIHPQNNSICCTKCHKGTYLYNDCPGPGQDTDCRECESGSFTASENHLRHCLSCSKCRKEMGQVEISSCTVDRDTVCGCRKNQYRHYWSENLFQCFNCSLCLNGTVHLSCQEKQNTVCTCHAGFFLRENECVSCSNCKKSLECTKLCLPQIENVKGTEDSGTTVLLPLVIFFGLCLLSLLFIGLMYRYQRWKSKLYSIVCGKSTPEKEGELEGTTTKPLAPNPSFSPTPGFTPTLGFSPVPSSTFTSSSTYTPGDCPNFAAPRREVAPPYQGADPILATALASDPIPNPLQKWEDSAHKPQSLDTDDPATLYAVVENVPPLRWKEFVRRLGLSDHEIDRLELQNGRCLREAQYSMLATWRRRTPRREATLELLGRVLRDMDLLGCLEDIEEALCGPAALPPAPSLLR
How it was run: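 IC50 from a 4-parameter logistic fit of secreted luciferase luminescence (QUANTI-Luc), normalised to min/max controls. Reporter THP-1 cells were exposed to peptides for 1 h at 37 °C before 10 ng/mL TNFα (final) was added overnight (16–18 h).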

What does the source list for `CCCC[C@@H]1NC(=O)[C@@H]2CC[C@@H](C2)NC(=O)[C@H]([C@@H](C)c2c[nH]c3c(OC)cccc23)NC(=O)CN(C)C(=O)[C@H](Cc2cccc(C(N)=O)c2)NC(=O)[C@H](Cc2ccc(C(N)=O)cc2)NC(=O)[C@](C)(CO)NC(=O)[C@H](Cc2c[nH]c3c(C#N)cccc23)NC(=O)[C@H](Cc2ccc(C(=O)O)cc2)NC(=O)[C@H](CC(N)=O)NC(=O)[C@H]2C[C@H](F)CN2C(=O)[C@H](Cc2c[nH]c3ccccc23)NC(=O)[C@@H]2CC[C@@H](O)CN2C(=O)[C@H](Cc2ccncc2)NC1=O` [SEQ ID NO. 21] (cyclo([4Pal][Pip(5R-OH)]W[dPro(trans-4-F)]N[Phe(4-COOH)][Trp(7-CN)][αMeS][Phe(4-CONH2)][Phe(3-CONH2)][Sar][Trp(βS-Me,7-OMe)][X1][Nle]))?
Kd [1]: 0.03 nM; Kd (human TNFR2 ECD protein): > 1000 nM; IC50 [2]: 0.9 nM

What does the source list for `CCCC[C@@H]1NC(=O)CSC[C@@H](C(N)=O)NC(=O)[C@H]([C@@H](C)c2c[nH]c3c(OC)cccc23)NC(=O)CN(C)C(=O)[C@H](Cc2ccc(O)cc2)NC(=O)[C@H](Cc2ccc(C(=O)O)cc2)NC(=O)[C@](C)(CO)NC(=O)[C@H](Cc2c[nH]c3c(Cl)cccc23)NC(=O)[C@H](Cc2ccncc2)NC(=O)[C@H](CC(N)=O)NC(=O)[C@H](CCC(=O)O)N(C)C(=O)[C@H](Cc2c[nH]c3ncccc23)NC(=O)[C@H]([C@@H](C)O)N(C)C(=O)[C@H](Cc2ccncc2)NC1=O` [SEQ ID NO. 29] ({CH2CO}-[Nle][4Pal][NMeT][Trp(7-aza)][NMeE]N[4Pal][Trp(7-Cl)][αMeS][Phe(4-COOH)]Y[Sar][Trp(βS-Me,7-OMe)]C-NH2; thioether N-14)?
Kd [1]: 0.28 nM; Kd (human TNFR2 ECD protein): > 1000 nM; IC50 [2]: 3.3 nM

For `CCCC[C@@H]1NC(=O)[C@@H]2CC[C@@H](C2)NC(=O)[C@H]([C@@H](C)c2c[nH]c3c(OC)cccc23)NC(=O)CN(C)C(=O)[C@H](Cc2ccc(C(N)=O)cc2)NC(=O)[C@H](Cc2ccc(C(N)=O)cc2)NC(=O)[C@](C)(CO)NC(=O)[C@H](Cc2c[nH]c3c(C#N)cccc23)NC(=O)[C@H](Cc2ccc(C(=O)O)cc2)NC(=O)[C@H](CC(N)=O)NC(=O)[C@H]2C[C@H](O)CN2C(=O)[C@H](Cc2c[nH]c3ncccc23)NC(=O)[C@@H]2CC[C@@H](O)CN2C(=O)[C@H](Cc2ccncc2)NC1=O` [SEQ ID NO. 254] (cyclo([4Pal][Pip(5R-OH)][Trp(7-aza)][dHyp]N[Phe(4-COOH)][Trp(7-CN)][αMeS][Phe(4-CONH2)][Phe(4-CONH2)][Sar][Trp(βS-Me,7-OMe)][X1][Nle])), which Kd ([1]; biotinylated human TNFR1 ECD on streptavidin chip, from kon and koff, read-out: SPR hTNFR1 KD) is on record?
Its Kd is 0.02 nM.

And the Kd (human TNFR2 ECD protein; biotinylated human TNFR2 ECD on streptavidin chip, read-out: SPR hTNFR2 KD)?
Its Kd is greater than 1000 nM.

And the IC50 [2]?
The IC50 was 0.4 nM.

Which Kd [1] does the source give for `CCCC[C@@H]1NC(=O)[C@@H]2CC[C@@H](C2)NC(=O)[C@H]([C@@H](C)c2c[nH]c3c(OC)cccc23)NC(=O)CN(C)C(=O)[C@H](Cc2ccc(O)cc2)NC(=O)[C@H](Cc2ccc(C(N)=O)cc2)NC(=O)[C@](C)(CO)NC(=O)[C@H](Cc2c[nH]c3c(Cl)cccc23)NC(=O)[C@H](Cc2ccncc2)NC(=O)[C@H](CC(N)=O)NC(=O)[C@H](CCC(=O)O)N(C)C(=O)[C@H](Cn2ncc3ccccc32)NC(=O)[C@@H]2CC[C@@H](O)CN2C(=O)[C@H](Cc2ccncc2)NC1=O` [SEQ ID NO. 74] (cyclo([4Pal][Trp(7-Cl)][αMeS][Phe(4-CONH2)]Y[Sar][Trp(βS-Me,7-OMe)][X1][Nle][4Pal][Pip(5R-OH)][Ala(indazol-1-yl)][NMeE]N)) here?
Its Kd is 0.12 nM.

What about the Kd (human TNFR2 ECD protein) of the same compound?
Its Kd is greater than 1000 nM.

What about the IC50 [2] of the same compound?
Its IC50 is 0.5 nM.
